Reference: PubChem BioAssay AID1033 (Sanford-Burnham Center for Chemical Genomics, 2008)
Activity calls are given as the source filed them. No rule for the calls is given here.

Target: Chaperone protein DnaK (Escherichia coli (strain K12)) (UniProt P0A6Y8)
Assay: binders of DnaK substrate-binding domain, biophysical, NMR, chaperone (AID 1033)
Conditions: Purified DnaK SBD, NMR ligand binding

Sequence of Chaperone protein DnaK (Escherichia coli (strain K12)) (P0A6Y8 whole entry, looked up, the tested form may be a part): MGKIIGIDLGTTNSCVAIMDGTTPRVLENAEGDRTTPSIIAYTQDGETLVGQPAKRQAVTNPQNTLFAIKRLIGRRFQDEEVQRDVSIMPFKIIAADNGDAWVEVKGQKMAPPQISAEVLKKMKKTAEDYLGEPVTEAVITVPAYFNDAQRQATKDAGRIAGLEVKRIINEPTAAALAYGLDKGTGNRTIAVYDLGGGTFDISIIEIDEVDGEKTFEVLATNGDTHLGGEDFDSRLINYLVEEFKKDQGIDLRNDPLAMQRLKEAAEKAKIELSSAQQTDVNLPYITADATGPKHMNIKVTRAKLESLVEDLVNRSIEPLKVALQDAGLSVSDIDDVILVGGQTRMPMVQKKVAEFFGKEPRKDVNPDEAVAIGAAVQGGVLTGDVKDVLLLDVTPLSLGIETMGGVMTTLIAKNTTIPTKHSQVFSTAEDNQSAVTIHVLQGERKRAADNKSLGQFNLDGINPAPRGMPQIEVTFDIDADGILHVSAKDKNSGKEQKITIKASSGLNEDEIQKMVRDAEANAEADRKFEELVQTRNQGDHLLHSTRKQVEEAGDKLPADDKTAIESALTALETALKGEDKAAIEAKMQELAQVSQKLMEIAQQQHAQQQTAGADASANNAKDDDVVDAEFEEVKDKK

CCOC(=O)C1=C(C)N2CCN=C2S1
Kd: > 4 mM (inactive)

Cc1cc(C(=O)N2CCN(c3ccccn3)CC2)no1
Kd: > 4 mM (inactive)

CN=C(C)c1c(O)n(C)c(=S)n(C)c1=O
Kd: > 4 mM (inactive)

O=C(NCc1cccc(Cl)c1)c1ccco1
Kd: > 4 mM (inactive)

COc1cc2cc[n+]3cc4c(OC)c(OC)ccc4cc3c2cc1OC
Kd: > 4 mM (inactive)

Cn1c(=O)[nH]c2nc[nH]c2c1=O
Kd: > 4 mM (inactive)

COC(=O)c1c(OC)cc2c(c1C)Oc1c(Cl)c(O)c(Cl)c(C)c1C(=O)O2
Kd: > 4 mM (inactive)

O=C(O)C1(S(=O)(=O)c2ccccc2)CC1
Kd: > 4 mM (inactive)

CCC(C)C(=O)c1c(O)c(C)c2oc3c(C)c(O)c(C(=O)C(C)CC)c(O)c3c2c1O (configuration not stated)
Kd: > 4 mM (inactive)

COc1c(-c2coc3cc4c(cc3c2=O)CC(O)C(C)(C)O4)ccc2c1C=CC(C)(C)O2 (configuration not stated)
Kd: > 4 mM (inactive)

Nc1ncnc2c1ncn2C1C[C@H](O)[C@@H](CO)O1 (some centres not stated)
Kd: > 4 mM (inactive)

Cn1cnc2c(=S)[nH]c(=O)n(Cc3ccccc3)c21
Kd: > 4 mM (inactive)

CCn1c(C)c(C(C)=O)c(N2CCN(C)CC2)nc1=S
Kd: > 4 mM (inactive)

O=C(O)CCS(=O)(=O)c1ccccc1
Kd: > 4 mM (inactive)

O=C(c1ccccc1)c1ccc(N2CCNCC2)cc1
Kd: > 4 mM (inactive)

CN1CC(=O)Nc2ccc([N+](=O)[O-])cc2C1=O
Kd: > 4 mM (inactive)

CCSc1nc(C)c(CC)c(C)c1C(N)=O
Kd: > 4 mM (inactive)

c1ccc(Cc2nn3c(-c4ccncc4)nnc3s2)cc1
Kd: > 4 mM (inactive)

Cc1ccc(Nc2nc(N)nc(CC#N)n2)cc1
Kd: > 4 mM (inactive)

CC12CCC(O)CC1CCC1C2[C@H](O)CC2(C)C(C3=CC(=O)OC3)CCC12O (some centres not stated)
Kd: > 4 mM (inactive)

O=C(NCc1ccccn1)c1ccc(Cl)cc1Cl
Kd: > 4 mM (inactive)

Nc1nc2[nH]c(=O)c(=O)[nH]c2c(=O)[nH]1
Kd: > 4 mM (inactive)

COc1ccc(NS(=O)(=O)c2ccc(N)cc2)nn1
Kd: > 4 mM (inactive)

CC(C)=CC(=O)Nc1ccccc1Br
Kd: > 4 mM (inactive)

C=C1C(=O)O[C@@H]2C[C@@]3(C)CCC[C@H](C)C3=C[C@H]12
Kd: > 4 mM (inactive)

COc1c2c(cc3c1OCO3)C13C=C[C@H](OC)CC1N(C2)CC3O (some centres not stated)
Kd: > 4 mM (inactive)

O=C(c1ccco1)N1CCNCC1
Kd: > 4 mM (inactive)

O=C(O)CCc1ccc2c(c1)OCO2
Kd: > 4 mM (inactive)

COc1c2ccoc2cc2oc(=O)ccc12
Kd: > 4 mM (inactive)

CNC(=S)N1CCN(C(=O)c2ccco2)CC1
Kd: > 4 mM (inactive)

Cc1cc(C(=O)NC(C)c2ccncc2)no1 (configuration not stated)
Kd: > 4 mM (inactive)

CCOc1nc(C)ccc1-c1noc(-c2ccco2)n1
Kd: > 4 mM (inactive)

CC1(C)C=CC(=O)[C@@]2(C)C1CC(=O)[C@]1(C)C2CC[C@@]2(C)[C@H](c3ccoc3)OC(=O)C3OC321 (some centres not stated)
Kd: > 4 mM (inactive)

CS(=O)(=O)c1nncn1-c1ccccc1
Kd: > 4 mM (inactive)

Nc1ncc2[nH]cnc2n1
Kd: > 4 mM (inactive)

CN(C)S(=O)(=O)c1ccc(N2CCOCC2)nc1
Kd: > 4 mM (inactive)

CN1CCN(c2cc(=O)n(C)c(=O)[nH]2)CC1
Kd: > 4 mM (inactive)

CCOc1ccc(-c2n[nH]c(=S)n2C)cc1
Kd: > 4 mM (inactive)

Cc1ccc(C)c(C(=O)NCc2ccncc2)c1
Kd: > 4 mM (inactive)

Cn1cc(C(=O)N/N=C/c2ccccc2)ccc1=O
Kd: > 4 mM (inactive)

Cc1cc(C)n2nc(C(=O)NCc3ccco3)nc2n1
Kd: > 4 mM (inactive)

CN1CCC[C@H]1c1cccnc1
Kd: > 4 mM (inactive)

O=C1CNC(=O)N1c1cccc(Cl)c1
Kd: > 4 mM (inactive)

O=C(Nc1ccccc1)Nc1ccccn1
Kd: > 4 mM (inactive)

O=c1[nH]nc(Cc2ccccn2)c2ccccc12
Kd: > 4 mM (inactive)

CNc1nc(OC)nc(N2CCOCC2)n1
Kd: > 4 mM (inactive)

Cc1c(CCO)c(=O)n2c([nH]c3ccccc32)c1C#N
Kd: > 4 mM (inactive)

Cn1c(=O)c2c(n(C)c1=O)=NC1(CCCCC1)N=2
Kd: > 4 mM (inactive)

COc1cc2c(cc1OC)[C@@H]1C(=O)c3ccc4oc(C(C)C)cc4c3O[C@@H]1CO2
Kd: > 4 mM (inactive)

O=C(NCc1ccccn1)c1ccc(Br)s1
Kd: > 4 mM (inactive)

O=C(NC(=S)NC1CCS(=O)(=O)C1)c1ccccc1 (configuration not stated)
Kd: > 4 mM (inactive)

Nc1nc(-c2cccnc2)nn1C(=O)Cc1ccccc1
Kd: > 4 mM (inactive)

Cc1sc2nc(SC3CCOC3=O)[nH]c(=O)c2c1C (configuration not stated)
Kd: > 4 mM (inactive)

NCc1ccc(-c2csnn2)cc1
Kd: > 4 mM (inactive)

CCC(=O)NC(=S)Nc1ccc(N2CCOCC2)cc1
Kd: > 4 mM (inactive)

N#CCSc1nnc2ccc3ccccc3n12
Kd: > 4 mM (inactive)

O=C1CSC(=O)N1CN1CCCC1
Kd: > 4 mM (inactive)
